Reference: ChEMBL document CHEMBL1821555, “Identification of a series of 4-[3-(quinolin-2-yl)-1,2,4-oxadiazol-5-yl]piperazinyl ureas as potent smoothened antagonist hedgehog pathway inhibitors” (Bioorg Med Chem Lett, 2011)

Legend:
Protein smoothened [1] = molecular target: T1, Protein smoothened (Homo sapiens, UniProt Q99835); experiment: Displacement of Bodipy-labelled cyclopamine from Smo expressed in COS-1 cells in presence of 2% FBS after 4 to 6 hrs by FACS flow cytometric analysis; format: cell-based
T1 sequence (Q99835 whole entry): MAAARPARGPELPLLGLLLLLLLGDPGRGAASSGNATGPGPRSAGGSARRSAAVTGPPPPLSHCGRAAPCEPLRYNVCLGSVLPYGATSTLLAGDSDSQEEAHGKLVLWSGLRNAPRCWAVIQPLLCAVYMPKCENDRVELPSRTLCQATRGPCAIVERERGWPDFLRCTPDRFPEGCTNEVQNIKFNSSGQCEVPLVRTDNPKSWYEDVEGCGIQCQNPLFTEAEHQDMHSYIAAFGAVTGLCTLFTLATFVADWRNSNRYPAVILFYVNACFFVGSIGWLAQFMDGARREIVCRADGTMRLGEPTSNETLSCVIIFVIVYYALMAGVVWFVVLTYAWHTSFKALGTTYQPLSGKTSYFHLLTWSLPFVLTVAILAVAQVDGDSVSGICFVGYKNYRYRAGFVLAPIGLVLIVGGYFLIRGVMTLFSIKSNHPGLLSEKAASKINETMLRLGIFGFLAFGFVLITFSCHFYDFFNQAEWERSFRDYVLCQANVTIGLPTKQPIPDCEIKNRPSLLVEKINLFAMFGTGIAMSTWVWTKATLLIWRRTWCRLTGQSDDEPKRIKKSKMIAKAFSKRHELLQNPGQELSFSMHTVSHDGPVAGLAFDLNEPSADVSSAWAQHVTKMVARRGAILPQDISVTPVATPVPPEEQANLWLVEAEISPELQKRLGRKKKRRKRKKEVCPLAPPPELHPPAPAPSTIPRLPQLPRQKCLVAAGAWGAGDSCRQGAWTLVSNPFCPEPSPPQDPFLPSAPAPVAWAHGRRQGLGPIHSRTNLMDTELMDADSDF

Shh Light II = experiment: Inhibition of Shh signaling in mouse Shh-light2 cells by Gli-dependent firefly luciferase reporter gene assay; format: functional, cell-based
Protein smoothened [2] = molecular target: T1, Protein smoothened; experiment: Inhibition of Bodipy-labelled cyclopamine binding to Smo expressed in COS-1 cells in presence of 20% NHS after 4 to 6 hrs by FACS flow cytometric analysis; format: cell-based
[3] = Fraction unbound in human plasma; format: ADME, cell-free
[4] = Intrinsic clearance in rat liver microsomes assessed per mg of protein; format: ADME, Microsome
[5] = Lipophilicity, log D of the compound; format: physicochemical; details: octanol/water
[6] = Oral bioavailability in rat; format: ADME, organism-based; details: in vivo
[7] = Clearance in rat; format: ADME, organism-based; details: in vivo

IC50 (Protein smoothened [1]) [nM]	IC50 (Shh Light II) [nM]	further results	SMILES
> 2500			O=C(Nc1ccccc1Cl)N1CCC(c2nc(-c3cnccn3)no2)CC1
350	480		CC(C)c1ccccc1NC(=O)N1CCC(c2nc(-c3ccc4ccccc4n3)no2)CC1
> 2500	> 2500		O=C(OCc1ccccc1)N1CCC(c2nc(-c3ccc4ccccc4n3)no2)CC1
640	900		C[C@H]1C[C@H](c2nc(-c3ccc4ccccc4n3)no2)CCN1C(=O)Nc1ccccc1Cl
790	680		CC1CN(C(=O)Nc2ccccc2Cl)CCC1c1nc(-c2ccc3ccccc3n2)no1 (mixture of isomers)
> 2500			COc1cccc2ccc(-c3noc(C4CCN(C(=O)Nc5ccccc5Cl)CC4)n3)nc12
> 2500		IC50 (Protein smoothened [2]): > 2500 nM	COc1cc2ccccc2nc1-c1noc(C2CCN(C(=O)Nc3ccccc3Cl)CC2)n1
> 2500			O=C(Nc1ccccc1Cl)N1CCC(c2nc(-c3ccc4ccncc4n3)no2)CC1
> 2500		IC50 (Protein smoothened [2]): > 2500 nM	COc1cccc2nc(-c3noc(C4CCN(C(=O)Nc5ccccc5Cl)CC4)n3)ccc12
480			O=C(Nc1ccccc1)N1CCC(c2nc(-c3ccc4ccccc4n3)no2)CC1
> 2500			O=C(Nc1ccccc1Cl)N1CCC(c2nc(-c3ncc4ccccc4n3)no2)CC1
750	410		O=C(NCC1CCC1)N1CCC(c2nc(-c3ccc4ccccc4n3)no2)CC1
280	57	IC50 (Protein smoothened [2]): 1600 nM; fraction unbound [3]: 0.005; microsomal CLint [4]: > 300 µL/min/mg	O=C(NC1CCCCC1)N1CCC(c2nc(-c3ccc4ccccc4n3)no2)CC1
> 2500			O=C(Nc1ccccc1Cl)N1CCC(c2nc(-c3ccccc3)no2)CC1
3400	3200		CN1CCC(NC(=O)N2CCC(c3nc(-c4ccc5ccccc5n4)no3)CC2)CC1
> 2500			COc1ccccc1NC(=O)N1CCC(c2nc(-c3ncccn3)no2)CC1
1900			N#Cc1ccc(NC(=O)N2CCC(c3nc(-c4ccc5ccccc5n4)no3)CC2)c(Cl)c1
> 2500			COc1ccccc1NC(=O)N1CCC(c2nc(-c3cnccn3)no2)CC1
> 2500		IC50 (Protein smoothened [2]): > 2500 nM	COc1cc(-c2noc(C3CCN(C(=O)Nc4ccccc4Cl)CC3)n2)nc2ccccc12
750			COc1ccccc1NC(=O)N1CCC(c2nc(-c3cc4ccccc4cn3)no2)CC1

IC50 (Protein smoothened [1]) [nM]	IC50 (Shh Light II) [nM]	further results	SMILES
1500	1600		O=C(Nc1cccnc1Cl)N1CCC(c2nc(-c3ccc4ccccc4n3)no2)CC1
> 2500			O=C(Nc1ccccc1Cl)N1CCC(c2nc(-c3ccc4ncccc4n3)no2)CC1
1500		IC50 (Protein smoothened [2]): 4100 nM; logD [5]: 2.8	CS(=O)(=O)c1ccc(NC(=O)N2CCC(c3nc(-c4ccc5ccccc5n4)no3)CC2)c(Cl)c1
> 2500			COc1ccccc1NC(=O)N1CCC(c2nc(-c3ccccn3)no2)CC1
> 2500			COc1ccccc1NC(=O)N1CCC(c2nc(-c3ccccc3C)no2)CC1
> 2500			O=C(Nc1ccccc1Cl)N1CCC(c2nc(-c3ncccn3)no2)CC1
180	410		COc1ccccc1NC(=O)N1CCC(c2nc(-c3ccc4ccccc4n3)no2)CC1
> 2500			O=C(Nc1ccccc1Cl)N1CCC(c2nc(-c3cnc4ccccc4c3)no2)CC1
2300	500	IC50 (Protein smoothened [2]): 1300 nM	CC(=O)N1CCC(NC(=O)N2CCC(c3nc(-c4ccc5ccccc5n4)no3)CC2)CC1
> 2500			COc1ccccc1NC(=O)N1CCC(c2nc(-c3nccc4ccccc34)no2)CC1
510	440		Cc1ccccc1NC(=O)N1CCC(c2nc(-c3ccc4ccccc4n3)no2)CC1
2200			O=C(Nc1ccccc1Cl)N1CCC(c2nc(-c3ccc4cnccc4n3)no2)CC1
> 2500		IC50 (Protein smoothened [2]): > 2500 nM	COc1ccc2ccc(-c3noc(C4CCN(C(=O)Nc5ccccc5Cl)CC4)n3)nc2c1
2100	1300		O=C(Nc1ccccc1Cl)N1CCC(O)(c2nc(-c3ccc4ccccc4n3)no2)CC1
1800			COc1ccc2nc(-c3noc(C4CCN(C(=O)Nc5ccccc5Cl)CC4)n3)ccc2c1
1400	3100		COc1ccccc1N(C)C(=O)N1CCC(c2nc(-c3ccc4ccccc4n3)no2)CC1
320		IC50 (Protein smoothened [2]): > 2500 nM	N#Cc1ccc(Cl)c(NC(=O)N2CCC(c3nc(-c4ccc5ccccc5n4)no3)CC2)c1
1100			O=C(Nc1ccccc1Cl)N1CCC(c2nc(-c3cnc4ccccc4n3)no2)CC1
3	5	IC50 (Protein smoothened [2]): 33 nM; logD [5]: 2.57; bioavailability [6]: 10%; clearance [7]: 26 mL/min/kg; microsomal CLint [4]: 119 µL/min/mg	Cn1c(-c2noc(N3CCN(C(=O)NC4CCCCC4)CC3)n2)nc2ccccc21
